# Experimental data taken from US20260209286A1, “SEA CUCUMBER-DERIVED HOLOTOCIN PEPTIDE AND USES THEREOF” (NATIONAL MARINE BIODIVERSITY INSTITUTE OF KOREA, priority 2022, published 2026).
# Where two headings read alike, the source gives them in different places. Where a SMILES comes first, the peptide text is derived from it. Bridges are numbered along the chain shown (N, C = ends). Where no end group is shown, it is not given here.
# Tests used:
# [1] = test system: kidney cell line 293T; assay: CCK-8 cytotoxicity assay in 293T cells; conditions: 10, 1 and 0.1 μM, 24 and 72 hours
# [2] = test system: epidermal keratinocytes HaCaT; assay: CCK-8 cytotoxicity assay in HaCaT cells; conditions: 10, 1 and 0.1 μM, 24 and 72 hours
# [3] = test system: Sox2; assay: RT-PCR of regeneration-related gene Sox2 in HaCaT skin cells; format: cell-based; conditions: 1 μM, 24 hours
# [4] = test system: rat hypothalamic neurons; conditions: cited from earlier work
# [5] = test system: Oct4; assay: RT-PCR of regeneration-related gene Oct4 in HaCaT skin cells; format: cell-based; conditions: 1 μM, 24 hours
# [6] = test system: kidney cell line 293T
# [7] = test system: epidermal keratinocytes HaCaT
# [8] = test system: kidney cell line 293T; assay: Size of stem cell spheroids formed in 293T cells; format: cell-based; conditions: 10, 1 and 0.1 μM, cultured 10 days
# Description: (§1) For the formation of spheroids, the cells prepared in Preparation Example 2 were cultured in Aggrewell 800 plates pretreated with an anti-Adherence rinsing solution, using a DMEM-F12 medium containing a stem cell-permissive medium supplemented with 20 ng/ml EGF, 20 ng/ml basic fibroblast growth factor (bFGf), and B27 Serum-free Supplement (50×; Invitrogen).
# (§2) After the culture period, the spheroids were observed under a microscope, and approximately 25 spheroids were measured.
# (§3) Specifically, FIGS. 5 to 8 show the results of adding the peptides prepared in Preparation Example 1 to the renal cell line 293T, and FIGS. 9 to 12 show the results of adding the same peptides to the epidermal keratinocytes HaCaT.
# [9] = test system: epidermal keratinocytes HaCaT; assay: Size of stem cell spheroids formed in HaCaT cells; format: cell-based; conditions: 10, 1 and 0.1 μM, cultured 10 days
# Description: as §1, §2, §3
compound,measurement,setting,value
"CC[C@H](C)[C@@H]1NC(=O)[C@H](Cc2ccccc2)NC(=O)[C@@H](N)CSSC[C@@H](C(=O)N2CCC[C@H]2C(=O)N[C@@H](CC(C)C)C(=O)NCC(N)=O)NC(=O)[C@H](CC(N)=O)NC(=O)[C@H]([C@@H](C)O)NC1=O [Holotocin(HLT), Holotocin] (H-CFITNCPLG-NH2; disulfide 1-6)",cytotoxicity / cell viability,[1],no changes in cytotoxicity or cell proliferation
same,cytotoxicity / cell viability,[2],no changes in cytotoxicity or cell proliferation
"CC[C@H](C)[C@@H]1NC(=O)[C@H](Cc2ccc(O)cc2)NC(=O)[C@@H](N)CSSC[C@@H](C(=O)N2CCC[C@H]2C(=O)N[C@@H](CC(C)C)C(=O)NCC(N)=O)NC(=O)[C@H](CC(N)=O)NC(=O)[C@H](CCC(N)=O)NC1=O [Oxytocin(OXT), Oxytocin]",expression of stemness-related gene Sox2,"[3]; HaCaT, RT-PCR",induces the expression
same,cytotoxicity / cell viability,[1],no changes in cytotoxicity or cell proliferation
same,size of spheroids,"[4]; rat hypothalamic neurons, Salehi et al. 2021",increase the size of spheroids
same,cytotoxicity / cell viability,[2],no changes in cytotoxicity or cell proliferation
same,expression of stemness-related gene Oct4,"[5]; HaCaT, RT-PCR",induces the expression
"NC(=O)CC[C@@H]1NC(=O)[C@H](Cc2ccccc2)NC(=O)[C@H](Cc2ccc(O)cc2)NC(=O)[C@@H](N)CSSC[C@@H](C(=O)N2CCC[C@H]2C(=O)N[C@@H](CCCN=C(N)N)C(=O)NCC(N)=O)NC(=O)[C@H](CC(N)=O)NC1=O [Vasopressin(AVP), Vasopressin]",expression of stemness-related gene Sox2,[3],induces the expression
same,cytotoxicity / cell viability,[6],no changes in cytotoxicity or cell proliferation
same,cytotoxicity / cell viability,[7],no changes in cytotoxicity or cell proliferation
same,size of spheroids,[4],increase the size of spheroids
same,expression of stemness-related gene Oct4,[5],induces the expression
"Octopressin (CFWTNCPVG-NH2; ends and bridges not checked; listed as Octopus vulgaris) [Octopressin(OTP), peptide derived from Octopus minor, hormone similar to oxytocin]",change in the size of the stem cell spheroids (in words),[8],little or no change in the size
same,cytotoxicity / cell viability,[1],no changes in cytotoxicity or cell proliferation
same,cytotoxicity / cell viability,[2],no changes in cytotoxicity or cell proliferation
same,change in the size of the stem cell spheroids (in words),[9],little or no change in the size
